Common to all, as to type: cell-based
One experiment concerns SUDHL10 cells. In words: Antiproliferation assay SUDHL10 (Assay 7). The settings on record: 72 h, CellTiter-Glo, read-out: Antiproli SUDHL10 IC50 (median). On the procedure:
(§1) Assessment of the Anti-Proliferative Effect of Compounds in Different Cell Lines
(§2) The impact of compounds on the proliferation of different cell lines was assessed using the CellTiter-Glo® Luminescent Cell Viability reagent from Promega (G7573).
(§3) In parallel, cells were plated in a reference (day 0) plate for time zero determination. Cells were incubated in a humidified incubator at 37° C. overnight.
(§4) Rim wells were excluded. The cells were incubated for 72 h hours in a humidified incubator at 37° C. The day 0 plate was measured by adding 30 μL/well of CTG solution (CellTiter-Glo® Luminescent Cell Viability reagent, Promega G7573) to time zero wells in the reference plate followed by a 10 minutes incubation and luminescence reading at 0.1 ms. using the PHERAstar FS microplate reader (BMG Labtech).
(§5) After 72 h incubation, the treated plates were measured in the same way as the day 0 plate mentioned above. The Bella DRC Master Sheet was used to calculate IC50s, with CI=day 0 values and C0=DMSO control values.
On the technique in general: Cellular ATP, detected with luciferase, serves as a proxy for viable cell number.

Another experiment has as its system SK-BR-3 cells. Put plainly: Antiproliferation assay SK-BR-3 (Assay 7). The settings on record: Homo sapiens, read-out: Antiproli SK-BR-3 IC50 median. On the procedure: as §1, §2, §3, §4, §5
The next experiment relates to SK-MEL-2 cells. Put plainly: Antiproliferation assay SK-MEL-2 (Assay 7). The note with it: Homo sapiens, read-out: Antiproli SK-MEL-2 IC50 median. Summed up: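 After overnight attachment at 37 °C, cells received compound for 72 h in a humidified incubator. Viability was read by CellTiter-Glo luminescence. A separate day 0 plate defined starting cell number for IC50 fitting against DMSO controls.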

The structures appear in SMILES notation. Where a name gives a salt, the structure may show the parent alone. Read-outs that look alike come from different tables or passages of the source.

In general, IC50 refers to the concentration that gives 50% inhibition.

Turning to `Cc1c2c(nn1C)C(C)OCCCCn1c(C(=O)O)c(CCCOc3cccc4ccccc34)c3cccc-2c31` (racemic) [Example 1, (rac)-2,3,15-trimethyl-7-[3-(naphthalen-1-yloxy)propyl]-2,10,11,12,13,15-hexahydropyrazolo[4′,3′:9,10][1,6]oxazacycloundecino[8,7,6-hi]indole-8-carboxylic Acid (Mixture of Stereoisomers)], the IC50 in the experiment with SUDHL10 cells (Homo sapiens, SU-DHL10) worked out at 7000 nM. For `Cc1c2c(nn1C)C(CCN1CCOCC1)OCCCCn1c(C(=O)O)c(CCCOc3cccc4ccccc34)c3ccc(F)c-2c31` (racemic) [Example 7, (rac)-4-fluoro-2,3-dimethyl-15-[2-(morpholin-4-yl)ethyl]-7-[3-(naphthalen-1-yloxy)propyl]-2,10,11,12,13,15-hexahydropyrazolo[4′,3′:9,10][1,6]oxazacycloundecino[8,7,6-hi]indole-8-carboxylic Acid], the IC50 with SUDHL10 cells (Homo sapiens, SU-DHL10) turned out to be 160 nM. Regarding `CCc1c2c(nn1C)C(CCN1CCOCC1)OCCCCn1c(C(=O)O)c(CCCOc3cccc4ccccc34)c3ccc(F)c-2c31` (racemic) [Example 10, (rac)-3-ethyl-4-fluoro-2-methyl-15-[2-(morpholin-4-yl)ethyl]-7-[3-(naphthalen-1-yloxy)propyl]-2,10,11,12,13,15-hexahydropyrazolo[4′,3′:9,10][1,6]oxazacycloundecino[8,7,6-hi]indole-8-carboxylic Acid], the IC50 in the experiment on SUDHL10 cells (Homo sapiens, SU-DHL10) turned out to be 140 nM.

For `Cc1c2c(nn1C)C(CCN1CCOCC1)OCCCCn1c(C(=O)O)c(CCCOc3cccc4cc(F)ccc34)c3ccc(Cl)c-2c31` (racemic) [Example 16, (rac)-4-chloro-7-{3-[(6-fluoronaphthalen-1-yl)oxy]propyl}-2,3-dimethyl-15-[2-(morpholin-4-yl)ethyl]-2,10,11,12,13,15-hexahydropyrazolo[4′,3′:9,10][1,6]oxazacycloundecino[8,7,6-hi]indole-8-carboxylic Acid], the half-maximal inhibitory concentration (IC50) in the experiment on SK-BR-3 cells (SK-BR-3, 72 h, CellTiter-Glo) was determined as 108 nM. On to `CCc1c2c(nn1C)C(CCN1CC(F)(F)C1)OCCCCn1c(C(=O)O)c(CCCOc3cccc4cc(F)ccc34)c3ccc(Cl)c-2c31` (single isomer, unassigned; (+)) [Example 78, (+)-4-chloro-15-[2-(3,3-difluoroazetidin-1-yl)ethyl]-3-ethyl-7-{3-[(6-fluoronaphthalen-1-yl)oxy]propyl}-2-methyl-2,10,11,12,13,15-hexahydropyrazolo[4′,3′:9,10][1,6]oxazacycloundecino[8,7,6-hi]indole-8-carboxylic Acid—N-ethylethanamine Salt], for which, in the experiment on SK-MEL-2 cells (SK-MEL-2, 72 h, CellTiter-Glo), the IC50 is 197 nM. Take `Cc1c2c(nn1C)C(CCN1CCOCC1)OCCCCn1c(C(=O)O)c(CCCOc3cccc4cc(F)ccc34)c3ccc(F)c-2c31` (single isomer, unassigned; enantiomer 1) [Example 20, 4-fluoro-7-{3-[(6-fluoronaphthalen-1-yl)oxy]propyl}-2,3-dimethyl-15-[2-(morpholin-4-yl)ethyl]-2,10,11,12,13,15-hexahydropyrazolo[4′,3′:9,10][1,6]oxazacycloundecino[8,7,6-hi]indole-8-carboxylic Acid—N-ethylethanamine (Enantiomer 1)]: the IC50 in the experiment with SK-MEL-2 cells (SK-MEL-2, 72 h) came to 607 nM; in the experiment on SK-BR-3 cells (SK-BR-3, 72 h), 173 nM. Take `CCc1c2c(nn1C)C(CCN1CCOCC1)OCCCCn1c(C(=O)O)c(CCCOc3cccc4cc(F)ccc34)c3ccc(F)c-2c31` (single isomer, unassigned; enantiomer 1) [Example 50, (+)-3-ethyl-4-fluoro-7-{3-[(6-fluoronaphthalen-1-yl)oxy]propyl}-2-methyl-15-[2-(morpholin-4-yl)ethyl]-2,10,11,12,13,15-hexahydropyrazolo[4′,3′:9,10][1,6]oxazacycloundecino[8,7,6-hi]indole-8-carboxylic Acid (Enantiomer 1)]: the IC50 in the experiment on SK-MEL-2 cells (SK-MEL-2, 72 h, CellTiter-Glo) came to 505 nM. On to `CCc1c2c(nn1C)C(CCC1CCOCC1)OCCCCn1c(C(=O)O)c(CCCOc3cccc4cc(F)ccc34)c3ccc(Cl)c-2c31` (single isomer, unassigned; enantiomer 1) [Example 63, (+)-4-chloro-3-ethyl-7-{3-[(6-fluoronaphthalen-1-yl)oxy]propyl}-2-methyl-15-[2-(oxan-4-yl)ethyl]-2,10,11,12,13,15-hexahydropyrazolo[4′,3′:9,10][1,6]oxazacycloundecino[8,7,6-hi]indole-8-carboxylic Acid—N-ethylethanamine Salt (Enantiomer 1)], for which the IC50 in the experiment with SK-MEL-2 cells (SK-MEL-2, 72 h) amounted to 324 nM.

As for `CCc1c2c(nn1C)C(CCC(C)(C)O)OCCCCn1c(C(=O)O)c(CCCOc3cccc4cc(F)ccc34)c3ccc(Cl)c-2c31` (single isomer, unassigned; enantiomer 1) [Example 75, (+)-4-chloro-3-ethyl-7-{3-[(6-fluoronaphthalen-1-yl)oxy]propyl}-15-(3-hydroxy-3-methylbutyl)-2-methyl-2,10,11,12,13,15-hexahydropyrazolo[4′,3′:9,10][1,6]oxazacycloundecino[8,7,6-hi]indole-8-carboxylic Acid—N-ethylethanamine Salt (Enantiomer 1)], in the experiment on SK-MEL-2 cells (SK-MEL-2, 72 h, CellTiter-Glo), the IC50 was found to be 170 nM.

For `Cc1c2c(nn1C)C(C)OCCCCn1c(C(=O)O)c(CCCOc3cccc4ccccc34)c3cccc-2c31` (single isomer, unassigned; stereoisomer 1) [Example 2, 2,3,15-trimethyl-7-[3-(naphthalen-1-yloxy)propyl]-2,10,11,12,13,15-hexahydropyrazolo[4′,3′:9,10][1,6]oxazacycloundecino[8,7,6-hi]indole-8-carboxylic Acid Trifluoroacetic Acid Salt (Stereoisomer 1)], in the experiment on SUDHL10 cells, the half-maximal inhibitory concentration (IC50) was determined as 2900 nM. On the same count and under the same terms, next, `Cc1c2c(nn1C)C(C)OCCCCn1c(C(=O)O)c(CCCOc3cccc4ccccc34)c3cccc-2c31` (single isomer, unassigned; stereoisomer 2) [Example 3, 2,3,15-trimethyl-7-[3-(naphthalen-1-yloxy)propyl]-2,10,11,12,13,15-hexahydropyrazolo[4′,3′:9,10][1,6]oxazacycloundecino[8,7,6-hi]indole-8-carboxylic Acid Trifluoroacetic Acid Salt (Stereoisomer 2)]: 7000 nM.
